Measured values as given in patent US20050101595A1, “N-containing cycloalkyl-substituted amino-thiazole derivatives and pharmaceutical compositions for inhibiting cell proliferation and methods for their use” (PFIZER INC., priority 2003, published 2005).
Where a name gives a salt, the structure may show the parent alone. Read-outs that look alike come from different tables or passages of the source.

How the values were obtained:
[1] = target: human CDK4 and genetically truncated (1-264) cyclin D3 (Homo sapiens, UniProt P11802); assay: Inhibition of CDK4/Cyclin D Retinoblastoma Kinase Activity; assay type: biochemical; conditions: apparent Ki, CDK4/truncated cyclin D3, Rb fragment substrate, 25 μM ATP
Chain of human CDK4 and genetically truncated (1-264) cyclin D3 (P11802 whole entry, the tested form may be a part): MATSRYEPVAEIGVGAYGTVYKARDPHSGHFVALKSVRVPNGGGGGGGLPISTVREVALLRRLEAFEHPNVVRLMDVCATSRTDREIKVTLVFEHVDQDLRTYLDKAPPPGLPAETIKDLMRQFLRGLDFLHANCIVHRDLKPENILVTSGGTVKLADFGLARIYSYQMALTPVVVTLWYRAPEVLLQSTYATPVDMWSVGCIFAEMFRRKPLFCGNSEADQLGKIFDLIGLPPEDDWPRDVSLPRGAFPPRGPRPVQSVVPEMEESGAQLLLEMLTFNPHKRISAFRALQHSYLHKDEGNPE
Chain of human CDK4 and genetically truncated (1-264) cyclin D3 (P30281 1-264 partner): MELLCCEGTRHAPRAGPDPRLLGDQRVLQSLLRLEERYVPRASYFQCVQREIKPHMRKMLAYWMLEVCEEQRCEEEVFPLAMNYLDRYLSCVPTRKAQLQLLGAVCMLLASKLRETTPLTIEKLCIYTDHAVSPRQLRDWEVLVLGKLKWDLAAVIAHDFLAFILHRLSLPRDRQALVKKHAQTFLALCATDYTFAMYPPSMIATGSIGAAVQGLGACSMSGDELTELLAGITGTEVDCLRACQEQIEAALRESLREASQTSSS
Method in brief: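 The enzyme complex (5 nM), expressed in co-infected insect cells, was incubated with recombinant Rb fragment, 25 μM radiolabelled ATP and 2% DMSO at 30 °C. Reactions were stopped with EDTA after 20 minutes, or 60 minutes for tight-binding inhibitors. Apparent Ki values came from competitive inhibition fits.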

HCT-116 cell line = assay: Inhibition of cell growth, tetrazolium salt (MTT) assay; assay type: cell-based; conditions: Homo sapiens, HCT-116, 120 h, MTT, three to five days
Method in brief: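 MTT colorimetric viability: three-to-five-day compound exposure in 0.5% (v/v) DMSO at 37° C, MTT 0.2 mg/mL for the last 4 h, A540 compared with vehicle-treated cells.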

CDK2/Cyclin A = CDK2/Cyclin A (Homo sapiens, UniProt P24941); assay: Inhibition of CDK2/Cyclin A Retinoblastoma Kinase Activity; assay type: biochemical; conditions: apparent Ki, CDK2/proteolyzed cyclin A, Rb fragment substrate, 25 μM ATP
Method in brief: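 CDK2 (10 or 19 nM), insect-cell expressed, gel-filtration purified with truncated cyclin A; Rb fragment substrate; 25 μM ATP; 10 mM HEPES pH 7.4, 10 mM MgCl2; 30° C, 60 or 75 min; EDTA stop; phosphocellulose/nitrocellulose capture, phosphorimager. % inhibition vs DMSO control, no-enzyme background subtracted.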

[2] = first HCT-116 column (c4), read-out: HCT-116 IC50
[3] = second HCT-116 column (c5), read-out: HCT-116 IC50

Structure (SMILES)	Ki [1] [µM]	IC50 (HCT-116 cell line; [2]) [µM]	IC50 (HCT-116 cell line; [3]) [µM]	Ki (CDK2/Cyclin A) [µM]	IC50 (HCT-116 cell line; read-out: HCT-116 IC50, first HCT-116 column (c4)) [µM]	IC50 (HCT-116 cell line; read-out: HCT-116 IC50, second HCT-116 column (c5)) [µM]
Nc1nc(NC2CCN(C(=O)c3ccc(Cl)nc3)CC2)sc1C(=O)c1c(F)cccc1F [Example C9, 1-(4-Amino-2-{1-[-(6-chloro-pyridin-3-yl)-methanoyl]-piperidin-4-ylamino}-thiazol-5-yl)-1-(2,6-difluoro-phenyl)-methanone]	0.02	0.59	1.3	0.067	–	–
Nc1nc(NC2CCN(C(=O)c3ccno3)CC2)sc1C(=O)c1c(F)cccc1F [Example C10, 1-{4-Amino-2-[1-(1-isoxazol-5-yl-methanoyl)-piperidin-4-ylamino]-thiazol-5-yl}1-(2,6-difluoro-phenyl)-methanone]	0.022	0.75	2.1	0.039	–	–
Nc1nc(NC2CCN(C(=S)Oc3ccc(F)cc3)CC2)sc1C(=O)c1c(F)cccc1F [Example C11, 4-[4-Amino-5-(2,6-difluoro-benzoyl)-thiazol-2-ylamino}-piperidine-1-carbothioic acid —O-(4-Fluoro-phenyl) ester]	0.01	0.4	2.7	0.0065	–	–
Nc1nc(NC2CCN(C(=O)c3cccc([N+](=O)[O-])c3)CC2)sc1C(=O)c1c(F)cccc1F [Example C12, 1-(4-Amino-2-{1-[1-(3-nitro-phenyl)-methanoyl]-piperidin-4-ylamino}-thiazol-5-yl)-1-(2,6-difluoro-phenyl)-methanone]	0.012	0.22	0.51	0.059	–	–
Nc1nc(NC2CCN(C(=O)c3ccncc3)CC2)sc1C(=O)c1c(F)cccc1F [Example C13]	0.018	2.8	5	0.053	–	–
Nc1nc(NC2CCN(C(=O)c3c[nH]cn3)CC2)sc1C(=O)c1c(F)cccc1F [Example C14, 1-{4-Amino-2-[1-(1-1H-imidazol-4-yl-methanoyl)-piperidin-4-ylamino]-thiazol-5-yl}-1-(2,6-difluoro-phenyl)-methanone]	0.066	> 5	> 5	0.095	–	–
Cn1cncc1C(=O)N1CCC(Nc2nc(N)c(C(=O)c3c(F)cccc3F)s2)CC1 [Example C15, 1-(4-Amino-2-{1-[1-(3-methyl-3H-imidazol-4-yl)-methanoyl]-piperidin-4-ylamino}-thiazol-5-y)-1-(2,6-difluoro-phenyl)-methanone]	0.051	> 5	> 5	0.15	–	–
Nc1nc(NC2CCN(C(=O)Oc3ccc([N+](=O)[O-])cc3)CC2)sc1C(=O)c1c(F)cccc1F [Example C16, 4-[4-Amino-5-(2,6-difluoro-benzoyl)-thiazol-2-ylamino]-piperidine-1-carboxylic acid 4-nitro-phenyl ester]	0.0075	–	–	0.018	0.13	0.4
Nc1nc(NC2CCN(C(=O)n3ccnc3)CC2)sc1C(=O)c1c(F)cccc1F [Example C17, {4-[4-Amino-5-(2,6-difluoro-benzoyl)-thiazol-2-ylamino]-piperidin-1-yl}-imidazol-1-yl-methanone]	0.021	2.1	4.4	0.017	–	–

Continued, in another order:

Ki [1] [µM]	IC50 (HCT-116 cell line; [2]) [µM]	IC50 (HCT-116 cell line; [3]) [µM]	Ki (CDK2/Cyclin A) [µM]	Structure (SMILES)	IC50 (HCT-116 cell line; read-out: HCT-116 IC50, first HCT-116 column (c4)) [µM]	IC50 (HCT-116 cell line; read-out: HCT-116 IC50, second HCT-116 column (c5)) [µM]
0.13	> 5	–	0.46	CN1CCC(C(=O)N2CCC(Nc3nc(N)c(C(=O)c4c(F)cccc4F)s3)CC2)CC1 [Example D1, 1-(4-Amino-2-{1-[1-(1-methyl-piperidin-4-yl)-methanoyl]-piperidin-4-ylamino}-thiazol-5-yl)-1-(2,6-difluoro-phenyl)-methanone]	–	–
0.12	1.9	5	1.3	CN(C)CC(=O)N1CCC(Nc2nc(N)c(C(=O)c3c(F)cccc3F)s2)CC1 [Example D2, (4-[4-Amino-5-(2,6-difluoro-benzoyl)-thiazol-2-ylamino}-piperidin-1-yl)-2-dimethylamino-ethanone]	–	–
0.071	> 5	–	0.4	Nc1nc(NC2CCN(C(=O)CCN3CCCCC3)CC2)sc1C(=O)c1c(F)cccc1F [Example D3, 1-(4-[4-Amino-5-(2,6-difluoro-benzoyl)-thiazol-2-ylamino}-piperidin-1-yl)-3-piperidin-1-yl-propan-1-one]	–	–
0.46	> 5	–	2.6	CN(C)[C@@H](Cc1ccccc1)C(=O)N1CCC(Nc2nc(N)c(C(=O)c3c(F)cccc3F)s2)CC1 [Example D4, (4-[4-Amino-5-(2,6-difluoro-benzoyl)-thiazol-2-ylamino}-piperidin-1-yl)-2S-dimethylamino-phenyl-propan-1-one]	–	–
0.0068	> 5	> 5	0.0064	Nc1nc(NC2CCN(C(=O)[C@@H]3CCC(=O)O3)CC2)sc1C(=O)c1c(F)cccc1F [Example D5, 5S-[1{-4-[4-Amino-5-(2,6-difluoro-benzoyl)-thiazol-2-ylamethano]-piperidin-1-yl}-methanoyl]-tetrahydro-furan-2-one]	–	–
0.067	1.9	3.9	0.16	Nc1nc(NC2CCN(C(=O)/C=C/c3ccncc3)CC2)sc1C(=O)c1c(F)cccc1F [Example D6, 1-{[4-Amino-5-(2,6-difluoro-benzoyl)-thiazol-2-ylamino]-piperidin-1-yl)3-pyridin-4-yl-prop-2(E)-enone]	–	–
0.032	0.0072	0.22	0.1	Cc1cc(C(=O)N2CCC(Nc3nc(N)c(C(=O)c4c(F)cccc4F)s3)CC2)ccc1Cl [Example D7, 1-(4-Amino-2-{1-[1-(4-chloro-3-methyl-phenyl)-methanoyl]-piperidin-4-ylamino}-thiazol-5-yl)-1-(2,6-difluoro-phenyl)-methanone]	–	–
0.0096	0.097	0.25	0.099	Nc1nc(NC2CCN(C(=O)c3ccc(F)c(Cl)c3)CC2)sc1C(=O)c1c(F)cccc1F [Example D8, 1-(4-Amino-2-{1-[1-(3-chloro-4-fluoro-phenyl)-methanoyl]-piperidin-4-ylamino}-thiazol-5-yl)-1-(2,6-difluoro-phenyl)-methanone]	–	–
0.062	0.06	0.2	0.085	Cc1cc(C)cc(CC(=O)N2CCC(Nc3nc(N)c(C(=O)c4c(F)cccc4F)s3)CC2)c1 [Example D10, 1-{4-[4-Amino-5-(2,6-difluoro-benzoyl)-thiazol-2-ylamino]piperidin-1-yl}-2-(3,5-dimethyl-phenyl)-ethanone]	–	–
0.031	0.72	1.8	0.081	Nc1nc(NC2CCN(C(=O)c3ccc(Br)cc3)CC2)sc1C(=O)c1c(F)cccc1F [Example D11]	–	–
0.014	0.12	0.32	0.029	COc1cc(C(=O)N2CCC(Nc3nc(N)c(C(=O)c4c(F)cccc4F)s3)CC2)ccc1C [Example D12, 1-[4-Amino-2-{1-[-(3-methoxy-4-methyl-phenyl)-methanoyl]-piperidin-4-ylamino}-thiazol-5-yl)-1-(2,6-difluoro-phenyl)-methanone Trifluoroacetic Acid Salt]	–	–
